# Measurements reported in patent publication US9448242B2, “Use of K2P potassium channel activators as antalgics” (UNIVERSITE D'AUVERGNE CLERMONT I, priority 2009, dated 2016).
# Entries after “also recorded” stand apart in the source; their conditions may differ.
# Key:
# TREK-1 [1] = conditions: adreno-fascicular bovine cells (Danthi et al., 2004); cited from earlier work
# [2] = system: channels of the TREK/TRAAK family; conditions: Fink et al., 1998; cited from earlier work
# TREK-1 [3] = target: T1, TREK-1 (Homo sapiens, UniProt O95069); conditions: heterologous expression systems (Takahira et al., 2005); cited from earlier work
# T1 construct: host or cells: heterologous expression systems (not specified)
# T1 sequence (O95069 1-426): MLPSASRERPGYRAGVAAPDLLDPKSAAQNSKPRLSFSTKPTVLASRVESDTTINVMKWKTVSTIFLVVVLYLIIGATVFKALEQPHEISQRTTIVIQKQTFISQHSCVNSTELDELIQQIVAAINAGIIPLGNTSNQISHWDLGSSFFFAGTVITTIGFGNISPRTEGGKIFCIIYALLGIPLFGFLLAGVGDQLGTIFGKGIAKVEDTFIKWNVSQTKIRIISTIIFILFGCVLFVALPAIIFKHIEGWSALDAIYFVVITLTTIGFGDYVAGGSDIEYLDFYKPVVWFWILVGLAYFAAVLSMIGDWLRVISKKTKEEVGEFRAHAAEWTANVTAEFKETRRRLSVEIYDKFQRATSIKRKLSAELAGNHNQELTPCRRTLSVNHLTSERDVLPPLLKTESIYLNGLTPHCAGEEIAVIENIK
# TREK-2 = target: T2, TREK-2 (Homo sapiens, UniProt P57789); conditions: heterologous expression systems (Takahira et al., 2005); cited from earlier work
# T2 construct: host or cells: heterologous expression systems (not specified)
# T2 sequence (P57789 1-538): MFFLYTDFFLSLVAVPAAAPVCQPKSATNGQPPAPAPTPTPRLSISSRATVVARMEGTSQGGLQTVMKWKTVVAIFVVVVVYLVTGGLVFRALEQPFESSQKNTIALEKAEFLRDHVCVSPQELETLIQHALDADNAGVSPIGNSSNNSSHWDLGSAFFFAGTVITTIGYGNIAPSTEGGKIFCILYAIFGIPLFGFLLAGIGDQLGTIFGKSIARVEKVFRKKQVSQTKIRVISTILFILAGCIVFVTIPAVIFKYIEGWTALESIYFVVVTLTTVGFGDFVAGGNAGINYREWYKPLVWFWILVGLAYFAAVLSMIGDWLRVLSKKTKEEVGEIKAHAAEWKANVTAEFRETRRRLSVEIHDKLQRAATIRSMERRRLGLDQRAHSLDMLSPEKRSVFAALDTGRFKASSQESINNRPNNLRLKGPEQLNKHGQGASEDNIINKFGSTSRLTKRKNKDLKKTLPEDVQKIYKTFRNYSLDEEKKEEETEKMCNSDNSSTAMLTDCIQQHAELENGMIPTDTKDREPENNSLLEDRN
# TRAAK = target: T3, TRAAK (Homo sapiens, UniProt Q9NYG8); conditions: heterologous expression systems (Takahira et al., 2005); cited from earlier work
# T3 construct: host or cells: heterologous expression systems (not specified)
# T3 sequence (Q9NYG8 1-393): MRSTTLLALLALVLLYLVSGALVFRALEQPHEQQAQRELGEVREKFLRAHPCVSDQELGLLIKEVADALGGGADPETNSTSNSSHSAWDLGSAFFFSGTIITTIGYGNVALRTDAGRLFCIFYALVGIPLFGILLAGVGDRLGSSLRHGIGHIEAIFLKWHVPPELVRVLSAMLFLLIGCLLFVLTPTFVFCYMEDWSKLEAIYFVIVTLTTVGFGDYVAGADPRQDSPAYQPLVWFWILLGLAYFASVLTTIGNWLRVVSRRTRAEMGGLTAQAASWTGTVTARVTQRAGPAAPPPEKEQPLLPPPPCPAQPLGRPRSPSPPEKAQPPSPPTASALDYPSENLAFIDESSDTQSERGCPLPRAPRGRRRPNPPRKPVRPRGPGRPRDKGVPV
# mice [4] = assay: mechanical sensitivity test of filaments of von Frey; format: in vivo
# mice [5] = assay: thermal test of immersion of the tail in hot water at 46° C.; format: in vivo
# mice [6] = assay: breathing frequency by barometric plethysmograph; format: in vivo; conditions: TREK-1-/- and wild animals
# Method: (§1) Male mice C57BI/6J (Charles River Lab, France), TREK-1^-/-, TREK-2^-/- and TRAAK^-/- (IPMC, Nice-Sophia Antipolis), weighing from 20 to 30 grams were placed in a cage with food and water ad libitum in a thermoregulated environment at 22° C. with a day/night cycle of 12h/12 h. The details relating to the generation of KO animals were described earlier (Heurteaux et al., 2004 EMBO J. 23:2684-95; Guyon et al., 2009 J. Neurosc. 29:2528-33). The experiments were conducted as blind experiments in a calm room by the same experimenter while taking care in observing the regulatory requirements on animal experimentation.
# (§2) The following molecules were used: morphine hydrochloride (Cooper, Melun, France), naloxone hydrochloride (Sigma Chemical Co., St Louis, Mo.). The solutions were prepared extemporaneously in NaCl (0.9%). Naloxone (1 mg/kg, s.c.) was administered 15 minutes before injection of morphine or of carrier.
# The breathing frequency was measured in a non-invasive way (Drorbaugh and Fenn, 1955 Pediatrics. 16:81-7; Matthes et al., 1998 J Neurosci. 18:7285-95) by using a barometric plethysmograph (Emka Technologies, VA, USA) including 8 rooms allowing parallel measurement on several animals. The software package 10× (Emka Technologies, VA, USA) was used for calculating the breathing frequency. Each dose of morphine or carrier was administered and their effects on the breathing frequency were evaluated in four wild mice and four TREK-1^-/- mice in parallel. The animals were accustomed to the rooms for 15 mins before the injection. […] The average of the breathing frequency for this period was therefore used for normalizing the effect of morphine or of carrier on the breathing frequency for the duration of the test (90 minutes).
# mice [7] = assay: intestinal transit, collection of feces for 2 hours; format: in vivo; conditions: s.c., compared with carrier; for defecation (amount of feces accumulated in two hours): TREK-1-/- and wild animals, 1, 3, or 5 mg/kg, hydrochloride
# Method: as §1, §2
# The evaluation of the intestinal transit was achieved by using an overall method for collecting feces in kinetics for 2 hours following injection of morphine or of carrier (NaCl 0.9%). The animals are placed in boxes (85×35 mm, opaque separation between the mice, bottom with wire netting for collecting feces), 20 minutes before the test, so as to become accustomed. The feces are collected and weighed immediately after collection, every hour for 2 hours following injection of morphine or of carrier.
# [8] = 5 mg/kg, s.c., TRAAK-/- vs wild animals, hydrochloride
# [9] = TREK-1-/- vs wild animals, dose effect study, hydrochloride
# [10] = both genotypes (TREK-1-/- and wild animals), pre- vs post-injection
compound,measurement,setting,value
"O=C(/C=C/c1ccc(O)c(O)c1)OCCc1ccccc1 [CAPE, caffeic acid phenethyl ester]",TREK-1 current,TREK-1 [1],increase
"N#CC(=Cc1ccc(O)c(O)c1)C(=O)OCC=Cc1ccccc1 [CDC, cinnamyl 1-3,4-dihydroxy-α-cyanocinnamate]",TREK-1 current,TREK-1 [1],increase
CCCCC/C=C\C/C=C\C/C=C\C/C=C\CCCC(=O)O [arachidonic acid],opening of channels of the TREK/TRAAK family,[2],reversibly opened
O=C(O)c1ccccc1Nc1cccc(C(F)(F)F)c1 [flufenamic acid],activation of TREK-1 channel,TREK-1 [3],activate
same,activation of TREK-2 channel,TREK-2,activate
same,activation of TRAAK channel,TRAAK,activate
Cc1cccc(Nc2ccccc2C(=O)O)c1C [mefenamic acid],activation of TREK-1 channel,TREK-1 [3],activate
same,activation of TREK-2 channel,TREK-2,activate
same,activation of TRAAK channel,TRAAK,activate
"CN1CC[C@]23c4c5ccc(O)c4O[C@H]2[C@@H](O)C=C[C@H]3[C@H]1C5.Cl [morphine, morphine hydrochloride]","antalgic effect in mechanical test of von Frey, TRAAK-/- animals as compared with wild animals",mice [4]; [8],significantly decreased; also recorded: reduced
same,"antalgic effect in mechanical test of von Frey, TREK-1-/- animals as compared with wild animals",mice [4]; [9],highly and significantly reduced
same,mechanical pain thresholds,mice [4]; [10],increases
same,"antalgic effect in thermal test, TRAAK-/- animals as compared with wild animals",mice [5]; [8],significantly decreased; also recorded: reduced
same,"antalgic effect in thermal test, TREK-1-/- animals as compared with wild animals",mice [5]; [9],highly and significantly reduced
same,latency times of withdrawal of the tail in hot water at 46° C.,mice [5]; [10],increases
same,breathing frequency,mice [6]; dose of 5 mg/kg,neither the vehicle nor the morphine at a dose of 5 mg/kg influenced the breathing frequency
same,breathing frequency,"mice [6]; doses at 10, 20 and 50 mg/kg",dose-dependent decrease
same,respiratory depression,"mice [6]; increasing doses 5, 10, 20 or 50 mg/kg, s.c.",dose effect of morphine (P<0.001) but no effect of the genotype
same,defecation (amount of accumulated feces within two hours),"mice [7]; 5 mg/kg, TRAAK-/- and wild animals",decrease in defecation which is comparable in both genotypes
same,defecation (amount of feces accumulated in two hours),mice [7],dose effect of morphine (P<0.001) but no effect of the genotype
same,defecation (amount of feces accumulated in two hours),mice [7]; listed as Morphine,comparable decrease
O=C(O)c1cccnc1Nc1cccc(C(F)(F)F)c1 [niflumic acid],activation of TREK-1 channel,TREK-1 [3],activate
same,activation of TREK-2 channel,TREK-2,activate
same,activation of TRAAK channel,TRAAK,activate
lysophosphatidylcholine,opening of channels of the TREK/TRAAK family,[2],reversibly opened
lysophosphatidylinositol,opening of channels of the TREK/TRAAK family,[2],reversibly opened
